For three compounds, GI50 results are on record in patent US20170107207A1, “AMINOPYRAZOLONE DERIVATIVE” (DAIICHI SANKYO COMPANY, LIMITED, priority 2014, published 2017).

The term GI50 denotes the concentration at which growth is held to half of that of the control. Lower therefore signals more potent growth inhibition.

What all share (format): cell-based
The subject of one test is T24. The experiment in a line: Cell growth inhibition test, T24. As to conditions: Homo sapiens, T-24, 72 h; T24, Bladder cancer, 3 days, CellTiter-Glo. As to the method:
(§1) A cell growth inhibition test was carried out by treating a cultured cancer cell line with a test compound for a given period and then counting the number of viable cells by CellTiter-Glo Luminescent Cell Viability Assay (manufactured by Promega Corp.).
(§2) The following cells were inoculated to a 384-well plate containing the compound prepared in advance at predetermined concentrations. […]
(§3) The cells thus inoculated were cultured at 37° C. for 3 days under 5% CO2. […] Then, luminescence intensity was measured using a plate reader.
(§4) The number of viable cells and luminescence intensity have been confirmed to correlate with each other. Therefore, the rate of cell growth was calculated according to the following expression: Rate of cell growth (T/C %) of a test compound-supplemented well=100×[(B−C)/(A−C)] wherein A represents the luminescence intensity (final culture date) of a test compound-free well; B represents the luminescence intensity (final culture date) of a test compound-containing well; and C represents the luminescence intensity (day of cell inoculation) of a well at the start of contact of the cells with the test compound.
(§5) T/C % at the concentration of each of the serially diluted test compounds was determined. […]
In general terms: Cellular ATP, detected with luciferase, serves as a proxy for viable cell number.

The subject of test [1] is human lymphoma cell line RAMOS cells. The experiment in a line: Cell growth inhibition test using RAMOS cell, ATP assay (CellTiter-Glo). As to conditions: Homo sapiens, Ramos, 72 h, cultured 3 days, 50% growth inhibition concentration. Summed up:
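RAMOS cells seeded at 4000 cells/well with compound and cultured 3 days at 37° C, 5% CO2; viability by CellTiter-Glo luminescence. Growth rate T/C % = 100×[(B−C)/(A−C)] using day-0 and final readings; GI50 interpolated from the two concentrations bracketing 50% growth.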

The next test relates to HCT-15. Put plainly: Cell growth inhibition test, HCT-15. The note with it: Homo sapiens, 72 h; HCT-15, Large intestine cancer, 3 days, CellTiter-Glo. As to the method:
as §1, §2, §3, §4, §5

The next test relates to ACHN. Put plainly: Cell growth inhibition test, ACHN. The note with it: Homo sapiens, 72 h, Kidney cancer, 3 days, CellTiter-Glo. As to the method: as §1, §2, §3, §4, §5
Another test deals with A375. Put plainly: Cell growth inhibition test, A375. The note with it: Homo sapiens, A-375, 72 h; A375, Skin cancer, 3 days, CellTiter-Glo. As to the method: as §1, §2, §3, §4, §5
For another test, the system named is RAMOS. The experiment in a line: Cell growth inhibition test, RAMOS. The note with it: Homo sapiens, 72 h, Lymphoma, 3 days, CellTiter-Glo. The method, then: as §1, §2, §3, §4, §5
The next test relates to HT-1080. The experiment in a line: Cell growth inhibition test, HT-1080. As to conditions: Homo sapiens, 72 h; HT-1080, Bone and soft tissue tumor, 3 days, CellTiter-Glo. The method, then: as §1, §2, §3, §4, §5
In the next test the test system is Hep G2. Put plainly: Cell growth inhibition test, Hep G2. As to conditions: Homo sapiens, HepG2, 72 h; Hep G2, Liver cancer, 3 days, CellTiter-Glo. The method, then: as §1, §2, §3, §4, §5
Another test has as its system BT-474. Put plainly: Cell growth inhibition test, BT-474. The note with it: Homo sapiens, 72 h; BT-474, Breast cancer, 3 days, CellTiter-Glo. As to the method:
as §1, §2, §3, §4, §5

Another test deals with DU 145. Put plainly: Cell growth inhibition test, DU 145. As to conditions: Homo sapiens, 72 h; DU 145, Prostate cancer, 3 days, CellTiter-Glo. As to the method: as §1, §2, §3, §4, §5
The next test relates to PANC-1. Put plainly: Cell growth inhibition test, PANC-1. As to conditions: Homo sapiens, 72 h; PANC-1, Pancreatic cancer, 3 days, CellTiter-Glo. The method, then: as §1, §2, §3, §4, §5
The subject of another test is OCI-LY7. Put plainly: Cell growth inhibition test, OCI-LY7. The note with it: Homo sapiens, 72 h; OCI-LY7, Lymphoma, 3 days, CellTiter-Glo. The method, then:
as §1, §2, §3, §4, §5

The test system of another test is ES-2. Put plainly: Cell growth inhibition test, ES-2. The note with it: Homo sapiens, 72 h; ES-2, Ovary cancer, 3 days, CellTiter-Glo. As to the method:
as §1, §2, §3, §4, §5

In a further test the test system is CAPAN-2. The experiment in a line: Cell growth inhibition test, CAPAN-2. As to conditions: Homo sapiens, 72 h; CAPAN-2, Pancreatic cancer, 3 days, CellTiter-Glo. As to the method:
as §1, §2, §3, §4, §5

In the next test the test system is A-172. Put plainly: Cell growth inhibition test, A-172. The note with it: Homo sapiens, 72 h; A-172, Brain tumor Central Nerve System, 3 days, CellTiter-Glo. As to the method:
as §1, §2, §3, §4, §5

On to `CCOc1cc(F)c(Cl)cc1C(=O)NCC(C)(C)CC(=O)Nc1c(COC)n(C)n(-c2ccccc2)c1=O` [Example 113, 5-Chloro-2-ethoxy-4-fluoro-N-(4-{[5-(methoxymethyl)-1-methyl-3-oxo-2-phenyl-2,3-dihydro-1H-pyrazol-4-yl]amino}-2,2-dimethyl-4-oxobutyl)benzamide], for which the GI50 came to 490 nM with T24; 130 nM in test [1]; 800 nM in the test on HCT-15; 970 nM with ACHN; 260 nM with A375; 160 nM in the test on RAMOS. Further, the GI50 in the test on HT-1080 came to 350 nM; in the test on Hep G2, 380 nM; in the test with BT-474 it was 25000 nM; in the test with DU 145 it was 650 nM; in the test with PANC-1, 1200 nM; in the test on OCI-LY7, 150 nM. The GI50 in the test with ES-2 was 750 nM; with CAPAN-2, 750 nM; in the test with A-172, 490 nM.
With `CCOc1ncc(Cl)cc1C(=O)NCC(C)(C)CC(=O)Nc1c([C@H](C)CN(C)C)n(C)n(-c2ccccc2)c1=O` [Example 73, 5-Chloro-N-[4-({5-[(1R)-2-(dimethylamino)-1-methylethyl]-1-methyl-3-oxo-2-phenyl-2,3-dihydro-1H-pyrazol-4-yl}amino)-2,2-dimethyl-4-oxobutyl]-2-ethoxypyridine-3-carboxamide], the GI50 in the test on T24 is 850 nM; in [1], 310 nM; in the test with HCT-15, 4000 nM; with ACHN, 2500 nM; with A375 it was 560 nM; in the test on RAMOS, 220 nM. The GI50 in the test with HT-1080 came to 520 nM; in the test on Hep G2, 1100 nM; in the test with BT-474, 5000 nM; in the test on DU 145, 1100 nM; in the test with PANC-1 it was 2000 nM; in the test with OCI-LY7, 370 nM. The GI50 was determined as 900 nM with ES-2, 980 nM in the test with CAPAN-2 and 600 nM with A-172.
Turning to `CCOc1ccc(Cl)cc1C(=O)NCC(C)(C)CC(=O)Nc1c([C@H](C)CN(C)C)n(C)n(-c2ccccc2)c1=O` [Example 68, 5-Chloro-N-[4-({5-[(1R)-2-(dimethylamino)-1-methylethyl]-1-methyl-3-oxo-2-phenyl-2,3-dihydro-1H-pyrazol-4-yl}amino)-2,2-dimethyl-4-oxobutyl]-2-ethoxybenzamide], the GI50 with T24 worked out at 650 nM; in [1], 140 nM; with HCT-15, 2700 nM; in the test on ACHN, 1800 nM; with A375 it was 280 nM; in the test on RAMOS, 130 nM. Moreover, the GI50 with HT-1080 turned out to be 220 nM; in the test with Hep G2 it was 580 nM; in the test on BT-474 it was 1900 nM; in the test on DU 145, 530 nM; in the test on PANC-1 it was 900 nM; in the test on OCI-LY7 it was 130 nM. In addition, the GI50 in the test on ES-2 was found to be 480 nM; in the test on CAPAN-2 it was 640 nM; with A-172, 380 nM.
